Assay results reported in ChEMBL document CHEMBL1125549, “Computer-aided mapping of the beta-adrenoceptor. 1. Explanation for effect of para substitution on blocking activity at the beta-1-adrenoceptor” (J Med Chem, 1992).

Tests used:
[1] = target: T1, Beta-1 adrenergic receptor (Cavia porcellus, UniProt B0FL73); assay: Activity at beta-1 adrenergic receptor; details: read-out: pA2 (converted)
[2] = target: T1, Beta-1 adrenergic receptor; assay: Compound was tested for the biological activity at the Beta-1 adrenergic receptor; details: read-out: pA2 (converted)

T1 sequence (B0FL73 whole entry): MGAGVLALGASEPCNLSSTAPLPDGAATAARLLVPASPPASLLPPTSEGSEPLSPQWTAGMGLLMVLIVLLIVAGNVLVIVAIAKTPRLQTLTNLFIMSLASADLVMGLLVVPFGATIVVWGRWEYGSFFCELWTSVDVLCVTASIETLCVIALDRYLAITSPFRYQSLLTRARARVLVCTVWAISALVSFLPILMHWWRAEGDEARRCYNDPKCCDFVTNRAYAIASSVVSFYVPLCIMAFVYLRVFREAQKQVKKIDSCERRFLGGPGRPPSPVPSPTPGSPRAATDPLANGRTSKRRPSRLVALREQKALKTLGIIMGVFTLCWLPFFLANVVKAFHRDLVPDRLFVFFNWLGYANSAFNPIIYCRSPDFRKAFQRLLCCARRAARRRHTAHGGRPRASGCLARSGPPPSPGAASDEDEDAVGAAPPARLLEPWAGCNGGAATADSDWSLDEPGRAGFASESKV

Kb [1] | Kb [2] | Compound
6.31 nM | – | CC(C)NCC(O)COc1ccc(OCCOCCc2ccc(F)cc2)cc1 (stereo not given)
– | 398 nM | COCCOc1ccc(OCC(O)CNC(C)C)cc1 (stereo not given)

The remaining lines, values behind:

Compound | Kb [1] | Kb [2]
CC(C)NCC(O)COc1ccc(-c2nc(-c3cccs3)c[nH]2)cc1 (stereo not given) | 1.26 nM | –
CCc1ccc(OCC(O)CNC(C)C)cc1 (stereo not given) | 63.1 nM | –
CC(C)NCC(O)COc1ccc(-c2ncc[nH]2)cc1 (stereo not given) | 25.1 nM | –
